Drawing on patent publication US9340590B2 (priority 2011, dated 2016), this text covers IC50 for 8 compounds.

Like-named read-outs stand apart in the source and are kept apart here. Positions of bridges follow the written chain, without caps; N, C: chain ends. Residues, ends and D or L forms follow the SMILES beside them.

The experiment concerns the target hNav1.7 (Homo sapiens, UniProt Q15858). The experiment is described as follows: cell-based. The experiment is classed as cell-based. The following applies: read-out: IWQ Use Nav1.7.

Sequence of hNav1.7 (Q15858 whole entry, looked up): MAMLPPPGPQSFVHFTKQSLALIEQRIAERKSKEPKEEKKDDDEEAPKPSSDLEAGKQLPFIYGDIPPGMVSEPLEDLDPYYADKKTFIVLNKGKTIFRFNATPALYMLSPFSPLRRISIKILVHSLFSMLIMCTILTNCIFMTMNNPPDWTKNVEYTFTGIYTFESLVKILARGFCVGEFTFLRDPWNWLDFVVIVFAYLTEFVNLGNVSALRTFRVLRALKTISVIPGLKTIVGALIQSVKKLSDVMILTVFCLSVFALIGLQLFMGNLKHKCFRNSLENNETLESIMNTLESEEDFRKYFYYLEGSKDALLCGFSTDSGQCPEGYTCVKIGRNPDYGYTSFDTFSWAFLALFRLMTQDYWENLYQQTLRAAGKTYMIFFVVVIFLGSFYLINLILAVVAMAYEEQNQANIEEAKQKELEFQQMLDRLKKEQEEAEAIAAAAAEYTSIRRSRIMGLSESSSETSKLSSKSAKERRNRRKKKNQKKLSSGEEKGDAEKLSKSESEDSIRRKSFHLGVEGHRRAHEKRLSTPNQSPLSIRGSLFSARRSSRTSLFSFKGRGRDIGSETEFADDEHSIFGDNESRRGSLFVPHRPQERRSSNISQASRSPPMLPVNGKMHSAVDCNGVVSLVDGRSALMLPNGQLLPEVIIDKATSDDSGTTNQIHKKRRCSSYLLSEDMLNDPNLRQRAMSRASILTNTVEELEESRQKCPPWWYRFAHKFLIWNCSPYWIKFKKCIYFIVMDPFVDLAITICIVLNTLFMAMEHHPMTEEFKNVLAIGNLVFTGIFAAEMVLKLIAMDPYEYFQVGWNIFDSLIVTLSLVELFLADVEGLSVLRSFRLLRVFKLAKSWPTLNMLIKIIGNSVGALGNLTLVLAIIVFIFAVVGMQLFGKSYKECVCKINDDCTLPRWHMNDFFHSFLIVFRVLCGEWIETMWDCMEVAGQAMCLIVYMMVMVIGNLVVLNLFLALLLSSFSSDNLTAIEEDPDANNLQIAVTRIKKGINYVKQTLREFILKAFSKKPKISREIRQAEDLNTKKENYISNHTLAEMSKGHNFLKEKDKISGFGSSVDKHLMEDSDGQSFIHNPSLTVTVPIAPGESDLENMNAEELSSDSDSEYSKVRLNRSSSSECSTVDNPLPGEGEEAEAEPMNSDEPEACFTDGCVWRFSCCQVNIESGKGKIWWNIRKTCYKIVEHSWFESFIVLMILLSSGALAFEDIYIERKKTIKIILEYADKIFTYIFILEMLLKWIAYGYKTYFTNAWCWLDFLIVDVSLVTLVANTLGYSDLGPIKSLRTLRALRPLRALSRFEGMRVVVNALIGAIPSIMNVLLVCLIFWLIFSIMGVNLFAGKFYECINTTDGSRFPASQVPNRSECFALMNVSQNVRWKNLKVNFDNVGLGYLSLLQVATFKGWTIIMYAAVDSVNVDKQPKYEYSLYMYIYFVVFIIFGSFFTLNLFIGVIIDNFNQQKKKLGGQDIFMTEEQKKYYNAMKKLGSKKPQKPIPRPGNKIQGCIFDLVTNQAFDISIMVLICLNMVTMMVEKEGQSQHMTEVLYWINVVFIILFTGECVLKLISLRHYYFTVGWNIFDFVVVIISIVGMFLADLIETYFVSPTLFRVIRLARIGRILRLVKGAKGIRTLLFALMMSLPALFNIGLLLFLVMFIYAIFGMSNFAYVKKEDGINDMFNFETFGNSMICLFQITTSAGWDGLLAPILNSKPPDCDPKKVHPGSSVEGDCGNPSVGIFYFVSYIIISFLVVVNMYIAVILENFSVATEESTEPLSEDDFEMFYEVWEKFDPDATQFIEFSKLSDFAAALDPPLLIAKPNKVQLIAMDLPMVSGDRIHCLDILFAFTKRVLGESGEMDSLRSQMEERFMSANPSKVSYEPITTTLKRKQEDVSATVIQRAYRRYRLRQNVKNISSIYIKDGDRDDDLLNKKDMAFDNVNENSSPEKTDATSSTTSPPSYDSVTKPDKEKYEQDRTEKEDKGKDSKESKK

Turning to `CC[C@H](C)[C@@H]1NC(=O)[C@@H]2CSSC[C@@H]3NC(=O)[C@H](C(C)C)NC(=O)[C@H](CC(C)C)NC(=O)[C@H](CC(N)=O)NC(=O)[C@@H]4CCCN4C(=O)[C@H](CCCNC(=N)N)NC(=O)[C@H](CSSC[C@H](NC(=O)[C@@H](N)CC(=O)O)C(=O)N[C@@H](CC(C)C)C(=O)NCC(=O)N[C@@H](Cc4ccccc4)C(=O)N[C@@H](CCSC)C(=O)N[C@@H](CCCNC(=N)N)C(=O)N[C@@H](CCCCN)C(=O)N2)NC(=O)[C@H](CSSC[C@@H](C(=O)N[C@@H](CCCCN)C(=O)N[C@@H](Cc2ccc(O)cc2)C(=O)N[C@H](C(=O)N[C@@H](Cc2ccccc2)C(N)=O)C(C)C)NC(=O)[C@H](Cc2c[nH]c4ccccc24)NC(=O)[C@H](CCC(=O)O)NC(=O)[C@H](Cc2c[nH]cn2)NC(=O)[C@H]([C@@H](C)O)NC(=O)[C@H](CCCNC(=N)N)NC(=O)[C@H](CO)NC3=O)NC(=O)[C@H](CCCCN)NC(=O)[C@H](CC(=O)O)NC(=O)[C@H](CC(N)=O)NC(=O)[C@H](CC(=O)O)NC(=O)[C@@H]2CCCN2C1=O` [SEQ ID NO: 153, [Glu28]GpTx-1(1-34)] (H-DCLGFMRKCIPDNDKCCRPNLVCSRTHEWCKYVF-NH2; disulfide 2-17, 9-23, 16-30), for the setting “Table 23, IonWorks Quattro, use, […]”, the IC50 came to 340 nM.
Consider `CC[C@H](C)[C@@H]1NC(=O)[C@@H]2CSSC[C@@H]3NC(=O)[C@H](C(C)C)NC(=O)[C@H](CC(C)C)NC(=O)[C@H](CC(N)=O)NC(=O)[C@@H]4CCCN4C(=O)[C@H](CCCNC(=N)N)NC(=O)[C@H](CSSC[C@H](NC(=O)[C@@H](N)CC(=O)O)C(=O)N[C@@H](CCCNC(=N)N)C(=O)NCC(=O)N[C@@H](Cc4ccccc4)C(=O)N[C@@H](CCSC)C(=O)N[C@@H](CCCNC(=N)N)C(=O)N[C@@H](CCCCN)C(=O)N2)NC(=O)[C@H](CSSC[C@@H](C(=O)N[C@@H](CCCCN)C(=O)N[C@@H](Cc2ccc(O)cc2)C(=O)N[C@H](C(=O)N[C@@H](Cc2ccccc2)C(N)=O)C(C)C)NC(=O)[C@H](Cc2c[nH]c4ccccc24)NC(=O)[C@H](CCCCN)NC(=O)[C@H](Cc2c[nH]cn2)NC(=O)[C@H]([C@@H](C)O)NC(=O)[C@H](CCCNC(=N)N)NC(=O)[C@H](CO)NC3=O)NC(=O)[C@H](CCCCN)NC(=O)[C@H](CC(=O)O)NC(=O)[C@H](CC(N)=O)NC(=O)[C@H](CC(=O)O)NC(=O)[C@@H]2CCCN2C1=O` [SEQ ID NO: 155] (H-DCRGFMRKCIPDNDKCCRPNLVCSRTHKWCKYVF-NH2; disulfide 2-17, 9-23, 16-30), for which the IC50 came out at 30 nM.
Consider `CC[C@H](C)[C@@H]1NC(=O)[C@@H]2CSSC[C@@H]3NC(=O)[C@H](C(C)C)NC(=O)[C@H](CC(C)C)NC(=O)[C@H](CC(N)=O)NC(=O)[C@@H]4CCCN4C(=O)[C@H](CCCNC(=N)N)NC(=O)[C@H](CSSC[C@H](NC(=O)[C@@H](N)CC(=O)O)C(=O)N[C@@H](CC(C)C)C(=O)NCC(=O)N[C@@H](CCCNC(=N)N)C(=O)N[C@@H](CCSC)C(=O)N[C@@H](CCCNC(=N)N)C(=O)N[C@@H](CCCCN)C(=O)N2)NC(=O)[C@H](CSSC[C@@H](C(=O)N[C@@H](CCCCN)C(=O)N[C@@H](Cc2ccc(O)cc2)C(=O)N[C@H](C(=O)N[C@@H](Cc2ccccc2)C(N)=O)C(C)C)NC(=O)[C@H](Cc2c[nH]c4ccccc24)NC(=O)[C@H](CCCCN)NC(=O)[C@H](Cc2c[nH]cn2)NC(=O)[C@H]([C@@H](C)O)NC(=O)[C@H](CCCNC(=N)N)NC(=O)[C@H](CO)NC3=O)NC(=O)[C@H](CCCCN)NC(=O)[C@H](CC(=O)O)NC(=O)[C@H](CC(N)=O)NC(=O)[C@H](CC(=O)O)NC(=O)[C@@H]2CCCN2C1=O` [SEQ ID NO: 156] (H-DCLGRMRKCIPDNDKCCRPNLVCSRTHKWCKYVF-NH2; disulfide 2-17, 9-23, 16-30), for which the IC50 (IonWorks Quattro, clamped to −110 mV, depolarized to −10 mV, 5 min after compound, n=2) worked out at 3630 nM.
In the case of `CC[C@H](C)[C@@H]1NC(=O)[C@@H]2CSSC[C@@H]3NC(=O)[C@H](C(C)C)NC(=O)[C@H](CC(C)C)NC(=O)[C@H](CC(N)=O)NC(=O)[C@@H]4CCCN4C(=O)[C@H](CCCNC(=N)N)NC(=O)[C@H](CSSC[C@H](NC(=O)[C@@H](N)CC(=O)O)C(=O)N[C@@H](CC(C)C)C(=O)N[C@@H](Cc4c[nH]c5ccccc45)C(=O)N[C@@H](Cc4ccccc4)C(=O)N[C@@H](CCSC)C(=O)N[C@@H](CCCNC(=N)N)C(=O)N[C@@H](CCCCN)C(=O)N2)NC(=O)[C@H](CSSC[C@@H](C(=O)N[C@@H](CCCCN)C(=O)N[C@@H](Cc2ccc(O)cc2)C(=O)N[C@H](C(=O)N[C@@H](Cc2ccccc2)C(N)=O)C(C)C)NC(=O)[C@H](Cc2c[nH]c4ccccc24)NC(=O)[C@H](CCCCN)NC(=O)[C@H](Cc2c[nH]cn2)NC(=O)[C@H]([C@@H](C)O)NC(=O)[C@H](CCCNC(=N)N)NC(=O)[C@H](CO)NC3=O)NC(=O)[C@H](CCCCN)NC(=O)[C@H](CC(=O)O)NC(=O)[C@H](CC(N)=O)NC(=O)[C@H](CC(=O)O)NC(=O)[C@@H]2CCCN2C1=O` [SEQ ID NO: 169] (H-DCLWFMRKCIPDNDKCCRPNLVCSRTHKWCKYVF-NH2; disulfide 2-17, 9-23, 16-30), the IC50 turned out to be 50 nM.
As for `CC[C@H](C)[C@@H]1NC(=O)[C@@H]2CSSC[C@@H]3NC(=O)[C@H](C(C)C)NC(=O)[C@H](CC(C)C)NC(=O)[C@H](CC(N)=O)NC(=O)[C@@H]4CCCN4C(=O)[C@H](CCCNC(=N)N)NC(=O)[C@H](CSSC[C@H](NC(=O)[C@@H](N)CC(=O)O)C(=O)N[C@@H](CC(C)C)C(=O)NCC(=O)N[C@@H](Cc4ccccc4)C(=O)N[C@@H](CCSC)C(=O)N[C@@H](C)C(=O)N[C@@H](CCCCN)C(=O)N2)NC(=O)[C@H](CSSC[C@@H](C(=O)N[C@@H](CCCCN)C(=O)N[C@@H](Cc2ccc(O)cc2)C(=O)N[C@H](C(=O)N[C@@H](Cc2ccccc2)C(N)=O)C(C)C)NC(=O)[C@H](Cc2c[nH]c4ccccc24)NC(=O)[C@H](CCCCN)NC(=O)[C@H](Cc2c[nH]cn2)NC(=O)[C@H]([C@@H](C)O)NC(=O)[C@H](CCCNC(=N)N)NC(=O)[C@H](CO)NC3=O)NC(=O)[C@H](CCCCN)NC(=O)[C@H](CC(=O)O)NC(=O)[C@H](CC(N)=O)NC(=O)[C@H](CC(=O)O)NC(=O)[C@@H]2CCCN2C1=O` [[Ala7]GpTx-1(1-34)] (H-DCLGFMAKCIPDNDKCCRPNLVCSRTHKWCKYVF-NH2; disulfide 2-17, 9-23, 16-30), the IC50 (IonWorks Quattro, use-dependent block, hNav1.7) is 940 nM.
`CC[C@H](C)[C@@H]1NC(=O)[C@@H]2CSSC[C@@H]3NC(=O)[C@H](C(C)C)NC(=O)[C@H](CC(C)C)NC(=O)[C@H](CC(N)=O)NC(=O)[C@@H]4CCCN4C(=O)[C@H](CCCNC(=N)N)NC(=O)[C@H](CSSC[C@H](NC(=O)[C@@H](N)CC(=O)O)C(=O)N[C@@H](CC(C)C)C(=O)NCC(=O)N[C@@H](Cc4ccccc4)C(=O)N[C@@H](CCSC)C(=O)N[C@@H](CCCNC(=N)N)C(=O)N[C@@H](CCC(=O)O)C(=O)N2)NC(=O)[C@H](CSSC[C@@H](C(=O)N[C@@H](CCCCN)C(=O)N[C@@H](Cc2ccc(O)cc2)C(=O)N[C@H](C(=O)N[C@@H](Cc2ccccc2)C(N)=O)C(C)C)NC(=O)[C@H](Cc2c[nH]c4ccccc24)NC(=O)[C@H](CCCCN)NC(=O)[C@H](Cc2c[nH]cn2)NC(=O)[C@H]([C@@H](C)O)NC(=O)[C@H](CCCNC(=N)N)NC(=O)[C@H](CO)NC3=O)NC(=O)[C@H](CCCCN)NC(=O)[C@H](CC(=O)O)NC(=O)[C@H](CC(N)=O)NC(=O)[C@H](CC(=O)O)NC(=O)[C@@H]2CCCN2C1=O` [[Glu8]GpTx-1(1-34)] (H-DCLGFMRECIPDNDKCCRPNLVCSRTHKWCKYVF-NH2; disulfide 2-17, 9-23, 16-30): the IC50 stood at 1700 nM.
As to `CC[C@H](C)[C@@H]1NC(=O)[C@@H]2CSSC[C@@H]3NC(=O)[C@H](C(C)C)NC(=O)[C@H](CC(C)C)NC(=O)[C@H](CC(N)=O)NC(=O)[C@@H]4CCCN4C(=O)[C@H](CCCNC(=N)N)NC(=O)[C@H](CSSC[C@H](NC(=O)[C@@H](N)CC(=O)O)C(=O)N[C@@H](CC(C)C)C(=O)NCC(=O)N[C@@H](Cc4ccccc4)C(=O)N[C@@H](CCSC)C(=O)N[C@@H](CCCNC(=N)N)C(=O)N[C@@H](CCCCN)C(=O)N2)NC(=O)[C@H](CSSC[C@@H](C(=O)N[C@@H](CCCCN)C(=O)N[C@@H](Cc2ccc(O)cc2)C(=O)N[C@H](C(=O)N[C@@H](Cc2ccccc2)C(N)=O)C(C)C)NC(=O)[C@H](Cc2c[nH]c4ccccc24)NC(=O)[C@H](CCCCN)NC(=O)[C@H](Cc2c[nH]cn2)NC(=O)[C@H]([C@@H](C)O)NC(=O)[C@H](CCCNC(=N)N)NC(=O)[C@H](CO)NC3=O)NC(=O)[C@H](CCCCN)NC(=O)[C@H](CC(=O)O)NC(=O)[C@H](CC(N)=O)NC(=O)[C@H](C)NC(=O)[C@@H]2CCCN2C1=O` [compound 4] (H-DCLGFMRKCIPANDKCCRPNLVCSRTHKWCKYVF-NH2; disulfide 2-17, 9-23, 16-30), for the setting “IonWorks Quattro, Use”, the IC50 is 120 nM.
For `CC[C@H](C)[C@@H]1NC(=O)[C@@H]2CSSC[C@@H]3NC(=O)[C@H](C(C)C)NC(=O)[C@H](CC(C)C)NC(=O)[C@H](C)NC(=O)[C@@H]4CCCN4C(=O)[C@H](CCCNC(=N)N)NC(=O)[C@H](CSSC[C@H](NC(=O)[C@@H](N)CC(=O)O)C(=O)N[C@@H](CC(C)C)C(=O)NCC(=O)N[C@@H](Cc4ccccc4)C(=O)N[C@@H](CCSC)C(=O)N[C@@H](CCCNC(=N)N)C(=O)N[C@@H](CCCCN)C(=O)N2)NC(=O)[C@H](CSSC[C@@H](C(=O)N[C@@H](CCCCN)C(=O)N[C@@H](Cc2ccc(O)cc2)C(=O)N[C@H](C(=O)N[C@@H](Cc2ccccc2)C(N)=O)C(C)C)NC(=O)[C@H](Cc2c[nH]c4ccccc24)NC(=O)[C@H](CCCCN)NC(=O)[C@H](Cc2c[nH]cn2)NC(=O)[C@H]([C@@H](C)O)NC(=O)[C@H](CCCNC(=N)N)NC(=O)[C@H](CO)NC3=O)NC(=O)[C@H](CCCCN)NC(=O)[C@H](CC(=O)O)NC(=O)[C@H](CC(N)=O)NC(=O)[C@H](CC(=O)O)NC(=O)[C@@H]2CCCN2C1=O` [compound 7] (H-DCLGFMRKCIPDNDKCCRPALVCSRTHKWCKYVF-NH2; disulfide 2-17, 9-23, 16-30), the IC50 stood at 690 nM.
